The source of these data is US20240174679A1, “HETEROAROYL AMIDES AS LRRK2 INHIBITORS, PHARMACEUTICAL COMPOSITIONS, AND USES THEREOF” (MERCK SHARP & DOHME LLC, priority 2021, published 2024).

Sequence of GST tagged truncated human mutant G2019S LRRK2 (Q5S007 970-2527 G2019S): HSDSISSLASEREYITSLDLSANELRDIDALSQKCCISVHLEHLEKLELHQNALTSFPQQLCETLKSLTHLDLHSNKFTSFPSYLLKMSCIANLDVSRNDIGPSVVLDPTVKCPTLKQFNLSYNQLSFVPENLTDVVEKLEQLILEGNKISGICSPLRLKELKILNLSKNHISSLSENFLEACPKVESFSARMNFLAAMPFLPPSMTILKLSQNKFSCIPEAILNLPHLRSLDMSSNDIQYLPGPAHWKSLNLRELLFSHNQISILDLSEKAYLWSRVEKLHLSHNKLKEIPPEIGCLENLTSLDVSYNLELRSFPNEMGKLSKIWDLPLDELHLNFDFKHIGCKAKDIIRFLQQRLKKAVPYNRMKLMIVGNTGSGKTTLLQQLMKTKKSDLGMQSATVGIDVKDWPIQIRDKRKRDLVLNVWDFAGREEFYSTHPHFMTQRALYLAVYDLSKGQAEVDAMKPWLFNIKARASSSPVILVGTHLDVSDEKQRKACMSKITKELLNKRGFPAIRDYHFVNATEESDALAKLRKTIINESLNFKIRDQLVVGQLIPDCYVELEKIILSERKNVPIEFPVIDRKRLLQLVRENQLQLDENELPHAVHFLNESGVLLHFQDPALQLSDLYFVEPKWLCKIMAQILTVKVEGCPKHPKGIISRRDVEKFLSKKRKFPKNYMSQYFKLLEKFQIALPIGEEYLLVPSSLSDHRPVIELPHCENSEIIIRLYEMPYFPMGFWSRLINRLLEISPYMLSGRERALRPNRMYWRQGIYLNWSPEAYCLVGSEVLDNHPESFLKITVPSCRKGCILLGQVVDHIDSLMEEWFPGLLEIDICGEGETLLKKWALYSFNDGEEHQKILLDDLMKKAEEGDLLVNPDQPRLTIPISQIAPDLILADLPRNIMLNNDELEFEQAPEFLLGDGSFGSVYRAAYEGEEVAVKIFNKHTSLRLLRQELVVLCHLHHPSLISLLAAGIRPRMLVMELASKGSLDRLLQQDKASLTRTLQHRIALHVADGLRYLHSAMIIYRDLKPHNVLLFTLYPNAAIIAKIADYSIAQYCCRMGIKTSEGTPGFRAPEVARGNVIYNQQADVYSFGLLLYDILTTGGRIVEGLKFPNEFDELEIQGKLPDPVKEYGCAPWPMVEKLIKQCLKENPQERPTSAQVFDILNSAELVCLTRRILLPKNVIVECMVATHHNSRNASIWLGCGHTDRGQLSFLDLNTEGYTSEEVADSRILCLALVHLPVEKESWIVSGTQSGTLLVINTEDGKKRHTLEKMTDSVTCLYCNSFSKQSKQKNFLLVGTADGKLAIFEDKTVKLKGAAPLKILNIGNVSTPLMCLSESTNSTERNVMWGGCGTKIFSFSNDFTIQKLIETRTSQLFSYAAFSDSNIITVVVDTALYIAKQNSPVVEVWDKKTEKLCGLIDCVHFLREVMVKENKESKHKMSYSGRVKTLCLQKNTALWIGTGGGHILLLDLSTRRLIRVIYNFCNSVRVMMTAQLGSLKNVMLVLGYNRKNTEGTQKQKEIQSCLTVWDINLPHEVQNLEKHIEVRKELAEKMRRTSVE

In this test the target is GST tagged truncated human mutant G2019S LRRK2 (Homo sapiens (Human), UniProt Q5S007, G2019S). Kind of test: LRRK2 Km ATP LanthaScreen Assay. It counts as biochemical. To be noted: 134 μM ATP (Km ATP), LRRKtide substrate, negative log of mean IC50 (molar). In a few lines:
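Truncated GST-tagged G2019S LRRK2 (1.25 nM enzyme solution) was preincubated with compound for 15 min at rt, then reacted for 90 min with fluorescein-LRRKtide and 134 μM ATP (Km) in Tris pH 8.5/MgCl2 buffer. After an EDTA stop, TR-FRET used a Tb anti-pERM antibody (520/495 nm ratio). IC50 came from a 4-parameter fit and is reported as pIC50, mean of several runs.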
Consider `Cn1cc(NC(=O)c2csc(-c3cn[nH]c3)n2)cn1` [Example 4-15, N-(1-methyl-1H-pyrazol-4-yl)-2-(1H-pyrazol-4-yl)thiazole-4-carboxamide], for which the “LRRK2 pIC50” value is listed as 7.28.

In the case of `O=C(Nc1cnn(C2CCC2)c1)c1cccc(N2CCCC2)n1` [Example 4-16, N-(1-cyclobutyl-1H-pyrazol-4-yl)-6-(pyrrolidin-1-yl)picolinamide], the “LRRK2 pIC50” value stood at 6.04.

With `O=C(Nc1cnn(C2CCC2)c1)c1cccc(-n2ccnc2)n1` [Example 4-17, N-(1-cyclobutyl-1H-pyrazol-4-yl)-6-(1H-imidazol-1-yl)picolinamide], the “LRRK2 pIC50” value is 5.91.

For the compound `O=C(Nc1cnn(C2CCC2)c1)c1cccc(N2CCCCC2)n1` [Example 4-18, N-(1-cyclobutyl-1H-pyrazol-4-yl)-6-(piperidin-1-yl)picolinamide], the “LRRK2 pIC50” value was determined as 5.81.

For `O=C(Nc1cnn(CC2(F)COC2)c1)c1csc(-c2cn[nH]c2)n1` [Example 5-1, N-(1-((3-Fluorooxetan-3-yl)methyl)-1H-pyrazol-4-yl)-2-(1H-pyrazol-4-yl)thiazole-4-carboxamide], the “LRRK2 pIC50” value is 7.50.

On to `Cn1cc(NC(=O)c2csc(-c3cn[nH]c3)n2)c(CO)n1` [Example 6-1, N-(3-(Hydroxymethyl)-1-methyl-1H-pyrazol-4-yl)-2-(1H-pyrazol-4-yl)thiazole-4-carboxamide], for which the “LRRK2 pIC50” value amounted to 7.47.

For the compound `O=C(Nc1cnn(CC2CCC2)c1)c1csc(-c2cn[nH]c2)n1` [Example 7-1, N-(1-(Cyclobutylmethyl)-1H-pyrazol-4-yl)-2-(1H-pyrazol-4-yl)thiazole-4-carboxamide], the “LRRK2 pIC50” value was found to be 7.76.

Turning to `O=C(Nc1cn(CC(F)F)nc1C(F)F)c1csc(-c2cn[nH]c2)n1` [Example 7-2, N-[1-(2,2-difluoroethyl)-3-(difluoromethyl)-1H-pyrazol-4-yl]-2-(1H-pyrazol-4-yl)-1,3-thiazole-4-carboxamide], the “LRRK2 pIC50” value is 7.58.

In the case of `COCCn1cc(NC(=O)c2csc(-c3cn[nH]c3)n2)c(C(F)F)n1` [Example 7-3, N-[3-(difluoromethyl)-1-(2-methoxyethyl)-1H-pyrazol-4-yl]-2-(1H-pyrazol-4-yl)-1,3-thiazole-4-carboxamide], the “LRRK2 pIC50” value was 7.27.

Take `O=C(Nc1cnn(CC2CCNCC2)c1)c1csc(-c2cn[nH]c2)n1` [Example 7-4, N-{1-[(piperidin-4-yl)methyl]-1H-pyrazol-4-yl}-2-(1H-pyrazol-4-yl)-1,3-thiazole-4-carboxamide]: the “LRRK2 pIC50” value is 6.79.

For `O=C(Nc1cn(CC2CCCCO2)nc1C(F)F)c1csc(-c2cn[nH]c2)n1` (centres unmarked) [Example 7-5, N-[3-(difluoromethyl)-1-(tetrahydro-2H-pyran-2-ylmethyl)-1H-pyrazol-4-yl]-2-(1H-pyrazol-4-yl)-1,3-thiazole-4-carboxamide], the “LRRK2 pIC50” value amounted to 7.32.

Take `CN(C)CCCn1cc(NC(=O)c2csc(-c3cn[nH]c3)n2)cn1` [Example 7-6, N-{1-[3-(dimethylamino)propyl]-1H-pyrazol-4-yl}-2-(1H-pyrazol-4-yl)-1,3-thiazole-4-carboxamide]: the “LRRK2 pIC50” value amounted to 6.43.

With `O=C(Nc1cn(CC2CCOCC2)nc1C(F)F)c1csc(-c2cn[nH]c2)n1` [Example 7-7, N-[3-(difluoromethyl)-1-(tetrahydro-2H-pyran-4-ylmethyl)-1H-pyrazol-4-yl]-2-(1H-pyrazol-4-yl)-1,3-thiazole-4-carboxamide], the “LRRK2 pIC50” value was 7.72.

For the compound `O=C(Nc1cnn(CC2CCC(F)(F)CC2)c1)c1csc(-c2cn[nH]c2)n1` [Example 7-8, N-{1-[(4,4-difluorocyclohexyl)methyl]-1H-pyrazol-4-yl}-2-(1H-pyrazol-4-yl)-1,3-thiazole-4-carboxamide], the “LRRK2 pIC50” value stood at 7.35.

`O=C(Nc1cn(CCF)nc1C(F)F)c1csc(-c2cn[nH]c2)n1` [Example 7-9, N-[3-(difluoromethyl)-1-(2-fluoroethyl)-1H-pyrazol-4-yl]-2-(1H-pyrazol-4-yl)-1,3-thiazole-4-carboxamide]: the “LRRK2 pIC50” value came out at 7.75.

In the case of `O=C(Nc1cnn(C2CCOCC2)c1)c1csc(-c2cn[nH]c2)n1` [Example 7-10, 2-(1H-pyrazol-4-yl)-N-[1-(tetrahydro-2H-pyran-4-yl)-1H-pyrazol-4-yl]-1,3-thiazole-4-carboxamide], the “LRRK2 pIC50” value is listed as 7.37.

Consider `O=C(Nc1cn(CC2CCC2)nc1C(F)F)c1csc(-c2cn[nH]c2)n1` [Example 7-11, N-[1-(cyclobutylmethyl)-3-(difluoromethyl)-1H-pyrazol-4-yl]-2-(1H-pyrazol-4-yl)-1,3-thiazole-4-carboxamide], for which the “LRRK2 pIC50” value turned out to be 7.55.

`O=C(Nc1cn(CC2CCCO2)nc1C(F)F)c1csc(-c2cn[nH]c2)n1` (centres unmarked) [Example 7-12, N-[3-(difluoromethyl)-1-(tetrahydrofuran-2-ylmethyl)-1H-pyrazol-4-yl]-2-(1H-pyrazol-4-yl)-1,3-thiazole-4-carboxamide]: the “LRRK2 pIC50” value is listed as 7.68.

Take `O=C(Nc1cnn(CC2CCCO2)c1)c1csc(-c2cn[nH]c2)n1` (centres unmarked) [Example 7-13, 2-(1H-pyrazol-4-yl)-N-[1-(tetrahydrofuran-2-ylmethyl)-1H-pyrazol-4-yl]-1,3-thiazole-4-carboxamide]: the “LRRK2 pIC50” value was 6.84.

Consider `COc1nn(CC2CC2)cc1NC(=O)c1csc(-c2cn[nH]c2)n1` [Example 7-14, N-[1-(cyclopropylmethyl)-3-methoxy-1H-pyrazol-4-yl]-2-(1H-pyrazol-4-yl)-1,3-thiazole-4-carboxamide], for which the “LRRK2 pIC50” value turned out to be 7.92.

Turning to `O=C(Nc1cnn(CCN2CCNCC2)c1)c1csc(-c2cn[nH]c2)n1` [Example 7-15, N-{1-[2-(piperazin-1-yl)ethyl]-1H-pyrazol-4-yl}-2-(1H-pyrazol-4-yl)-1,3-thiazole-4-carboxamide], the “LRRK2 pIC50” value is listed as 6.36.

Consider `COc1nn(CC2CCOCC2)cc1NC(=O)c1csc(-c2cn[nH]c2)n1` [Example 7-16, N-[3-methoxy-1-(tetrahydro-2H-pyran-4-ylmethyl)-1H-pyrazol-4-yl]-2-(1H-pyrazol-4-yl)-1,3-thiazole-4-carboxamide], for which the “LRRK2 pIC50” value is 7.25.

For the compound `O=C(Nc1cnn(Cc2ccc(F)cc2)c1)c1csc(-c2cn[nH]c2)n1` [Example 7-17, N-[1-(4-fluorobenzyl)-1H-pyrazol-4-yl]-2-(1H-pyrazol-4-yl)-1,3-thiazole-4-carboxamide], the “LRRK2 pIC50” value was 7.76.

In the case of `CC(C)n1cc(NC(=O)c2csc(-c3cn[nH]c3)n2)c(C(F)F)n1` [Example 7-18, N-[3-(difluoromethyl)-1-(1-methylethyl)-1H-pyrazol-4-yl]-2-(1H-pyrazol-4-yl)-1,3-thiazole-4-carboxamide], the “LRRK2 pIC50” value came out at 7.72.

Regarding `COc1nn(CC2CCC2)cc1NC(=O)c1csc(-c2cn[nH]c2)n1` [Example 7-19, N-[1-(cyclobutylmethyl)-3-methoxy-1H-pyrazol-4-yl]-2-(1H-pyrazol-4-yl)-1,3-thiazole-4-carboxamide], the “LRRK2 pIC50” value is 7.80.

`COc1nn(CC(F)F)cc1NC(=O)c1csc(-c2cn[nH]c2)n1` [Example 7-20, N-[1-(2,2-difluoroethyl)-3-methoxy-1H-pyrazol-4-yl]-2-(1H-pyrazol-4-yl)-1,3-thiazole-4-carboxamide]: the “LRRK2 pIC50” value stood at 7.58.

Consider `COCCn1cc(NC(=O)c2csc(-c3cn[nH]c3)n2)c(OC)n1` [Example 7-21, N-[3-methoxy-1-(2-methoxyethyl)-1H-pyrazol-4-yl]-2-(1H-pyrazol-4-yl)-1,3-thiazole-4-carboxamide], for which the “LRRK2 pIC50” value came to 6.57.

On to `COCCn1cc(NC(=O)c2csc(-c3cn[nH]c3)n2)cn1` [Example 7-22, N-[1-(2-methoxyethyl)-1H-pyrazol-4-yl]-2-(1H-pyrazol-4-yl)-1,3-thiazole-4-carboxamide], for which the “LRRK2 pIC50” value was found to be 7.00.

With `CC(C)Cn1cc(NC(=O)c2csc(-c3cn[nH]c3)n2)c(C(F)F)n1` [Example 7-23, N-[3-(difluoromethyl)-1-(2-methylpropyl)-1H-pyrazol-4-yl]-2-(1H-pyrazol-4-yl)-1,3-thiazole-4-carboxamide], the “LRRK2 pIC50” value stood at 7.59.

Take `O=C(Nc1cnn(Cc2ccncc2)c1)c1csc(-c2cn[nH]c2)n1` [Example 7-24, 2-(1H-pyrazol-4-yl)-N-[1-(pyridin-4-ylmethyl)-1H-pyrazol-4-yl]-1,3-thiazole-4-carboxamide]: the “LRRK2 pIC50” value is 7.30.

On to `COc1nn(CC2(C#N)CC2)cc1NC(=O)c1csc(-c2cn[nH]c2)n1` [Example 7-25, N-{1-[(1-cyanocyclopropyl)methyl]-3-methoxy-1H-pyrazol-4-yl}-2-(1H-pyrazol-4-yl)-1,3-thiazole-4-carboxamide], for which the “LRRK2 pIC50” value stood at 7.70.

Turning to `O=C(Nc1cnn(C[C@H]2CCNC2)c1)c1csc(-c2cn[nH]c2)n1` [Example 7-26, 2-(1H-pyrazol-4-yl)-N-(1-{[(3S)-pyrrolidin-3-yl]methyl}-1H-pyrazol-4-yl)-1,3-thiazole-4-carboxamide], the “LRRK2 pIC50” value is 6.84.

`N#CCn1cc(NC(=O)c2csc(-c3cn[nH]c3)n2)c(C(F)F)n1` [Example 7-27, N-[1-(cyanomethyl)-3-(difluoromethyl)-1H-pyrazol-4-yl]-2-(1H-pyrazol-4-yl)-1,3-thiazole-4-carboxamide]: the “LRRK2 pIC50” value is given as 7.50.

Take `N#CC1(Cn2cc(NC(=O)c3csc(-c4cn[nH]c4)n3)cn2)CCNCC1` [Example 7-28, N-{1-[(4-cyanopiperidin-4-yl)methyl]-1H-pyrazol-4-yl}-2-(1H-pyrazol-4-yl)-1,3-thiazole-4-carboxamide]: the “LRRK2 pIC50” value amounted to 6.71.

Regarding `O=C(Nc1cn(CC2CC2(F)F)nc1C(F)F)c1csc(-c2cn[nH]c2)n1` (centres unmarked) [Example 7-29, N-{1-[(2,2-difluorocyclopropyl)methyl]-3-(difluoromethyl)-1H-pyrazol-4-yl}-2-(1H-pyrazol-4-yl)-1,3-thiazole-4-carboxamide], the “LRRK2 pIC50” value is reported as 7.78.
